We go through two compounds from US5571816A, “Pyrimidines” (Hoechst Aktiengesellschaft, priority 1992, dated 1996).

In series [1] the test system is LDL receptor mRNA. Nature of the series: Stimulation of LDL receptor mRNA expression in HepG2 cells (Northern blot). Conditions: Homo sapiens; HepG2, 2 × 10^-6 M, 16 h; control = 100%; ratio to β-actin mRNA. Format: cell-based. The protocol: 1a. In the human hepatocytoma cell line HepG2, which is recognized everywhere as model, the LDL receptor mRNA levels are increased by the compounds of the formula I (Table I).
(§1) The mRNA was prepared by the method described by Chomczynski, P. and Sacchi, N., in Anal. Biochem. 162, 156-159 (1987). In the case of organs (such as, for example, liver), the deep-frozen tissue was previously homogenized on dry ice in a mortar, and the mRNA was further concentrated by means of oligo dT by standard methods (cf. Sambrook, J., Fritsch, E. F. and Maniatis, T., Molecular Cloning, second edition, Cold Spring Harbor (1989); this collection of methods also includes descriptions of all the other relevant standard processes of molecular biology used here). 5 to […] of the dissolved mRNA obtained in this way were denatured by standard processes and fractionated on 1% horizontal agarose gels. The mRNA was transferred by capillary blotting to Hybond N membranes (Amersham). Used as specific hybridization probe was a partial LDL receptor cDNA clone and as internal standard was a plasmid which contained a β-actin gene. Both plasmids were labeled using a random primer kit from Amersham to a specific activity of 5×10^9 cpm/μg. Prehybridization, hybridization and washing of the filters took place by standard processes. The filters were subsequently exposed on Cronex 4 films (Dupont) in the presence of an intensifying screen at -70° C. overnight or for up to 14 days, and the hybridization signals were quantified from the intensity of blackening of the film using a commercially available laser densitometer. Subsequently, the quotient of the intensity of the LDL receptor band and of the actin band was determined as internal standard to correct for variations in yield.
The HepG2 cells were incubated in RPMI 1640 standard medium with fetal calf serum (final concentration 10%). Serum-free RPMI medium was used as induction control. Subsequently, the complete mRNA was prepared and, by means of the Northern blot technique, the relevant LDL receptor mRNA and β-actin mRNA levels were determined. The quotient of the LDL receptor mRNA signal and of the β-actin mRNA signal of the control (without added substance) was set equal to 100%, and the stimulation above this of the LDL receptor mRNA levels achieved under the influence of the compounds was expressed as percentage of the control.

The nature of series [2]: Solubility in water of salts (and free bases). It is filed as physicochemical. Conditions: Table 2, salts of compounds I, temp. by No. [°C]: 1 25.5, 2 23.0, 3 22.4, 4 22.4, 5 22.0, 6 25.0, 7 25.5, 8 25.5, 9 25.5, 10 23.5, 11 23.5, 12 25.0, 13 24.0, 14 23.0, 15 22.0, 16 24.5, 17 22.5, 18 22.0; for solubility: water, read-out: Solubility in water, Concentration in % by wt.
The test system of series [3] is LDL receptor mRNA. Nature of the series: Stimulation of LDL receptor mRNA expression in rat livers (Northern blot). It is filed as in vivo. Conditions: rat liver, 30 mg/kg, 6 hours after administration; untreated control = 100%. The protocol:
1b. The LDL receptor mRNA levels are also raised in rat livers by compounds of the formula I within a few hours (Table II).
as §1
Liver tissue was removed and shock-frozen in liquid nitrogen.
Subsequently, the mRNA was isolated as described and, by means of the Northern blot technique, the relative LDL receptor mRNA levels were determined. The mRNA level of untreated control animals was set equal to 100%, and the stimulation of the LDL receptor mRNA was calculated as a percentage of the […]

The subject of the next series is serum lipoproteins. Nature of the series: Effect on serum lipoproteins of normolipemic male rats in a subchronic experiment. Conditions: Rattus norvegicus, po, by stomach tube, 7 administrations; for change in vivo at 10 mg/kg: 10 mg/kg/day; for change in vivo at 30 mg/kg: 30 mg/kg/day; for change in vivo at 3 mg/kg: 3 mg/kg/day. Format: in vivo. Put shortly: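 Male HOE: WISKf rats (>180 g, 10/group) dosed orally by stomach tube once daily for 7 days in 1% aqueous Tylose; fasted 24 h and bled 24 h after last dose. Pooled serum ultracentrifuged into VLDL (d<1.006) and LDL (d 1.006–1.04); cholesterol and triglycerides measured enzymatically, protein by Lowry.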

The mark [4] stands for this setting: read-out: Serum LDL cholesterol, % change from control at end of treatment.
The mark [5] stands for this setting: read-out: Serum LDL protein, % change from control at end of treatment.
The mark [6] stands for this setting: read-out: Serum VLDL cholesterol, % change from control at end of treatment.
Where [7] appears, read: read-out: Serum VLDL protein, % change from control at end of treatment.
Setting [8] is: read-out: Serum VLDL triglycerides, % change from control at end of treatment.

SMILES strings stand for the structures. Where two headings read alike, the source gives them in different places.

As for `CCCN(C(=O)c1cnc(N2CC(C)(C)NC2=O)nc1N)c1cccc(C(F)(F)F)c1` [Example 33], the activity at 2 µM with LDL receptor mRNA [1] was found to be 205%. Also, the “1 part by mass dissolves in ... parts by H2O” value in series [2] is recorded as 22.8 parts by H2 O. Further, the solubility in series [2] turned out to be 42 mg/mL. Besides, in the series on LDL receptor mRNA [3], the “LDL receptor mRNA” value is 350%. The change in vivo at 10 mg/kg in the series on serum lipoproteins (setting [4]) is -47%; with serum lipoproteins (setting [5]), -33%; in the series on serum lipoproteins (setting [6]), 48%; with serum lipoproteins (setting [7]), -29%; in the series on serum lipoproteins (setting [8]) it was -73%. The change in vivo at 30 mg/kg is -67% in the series on serum lipoproteins (setting [4]); 44% with serum lipoproteins (setting [5]); -95% in the series with serum lipoproteins (setting [6]); -33% in the series with serum lipoproteins (setting [7]); -100% in the series with serum lipoproteins (setting [8]).

Take `C=CCN(C(=O)c1cnc(N2CC(C)(C)NC2=O)nc1N)c1cccc(C(F)(F)F)c1` [Example 40]: the activity at 2 µM in the series with LDL receptor mRNA [1] is 180%. Further, the “1 part by mass dissolves in ... parts by H2O” value in series [2] turned out to be 12.1 parts by H2 O. Further, the solubility in series [2] was determined as 76.6 mg/mL. Also, the “LDL receptor mRNA” value in the series with LDL receptor mRNA [3] is 340%. Besides, the change in vivo at 3 mg/kg is -22% in the series on serum lipoproteins (setting [4]), -18% with serum lipoproteins (setting [5]), -19% in the series with serum lipoproteins (setting [6]) and -11% with serum lipoproteins (setting [7]). Besides, the change in vivo at 10 mg/kg with serum lipoproteins (setting [4]) was -53%; in the series on serum lipoproteins (setting [5]) it was -38%; in the series with serum lipoproteins (setting [6]) it was -40%; with serum lipoproteins (setting [7]), -41%; in the series with serum lipoproteins (setting [8]) it was -2%. In addition, the change in vivo at 30 mg/kg was -58% in the series on serum lipoproteins (setting [4]); -52% in the series with serum lipoproteins (setting [5]); -57% with serum lipoproteins (setting [6]); -52% with serum lipoproteins (setting [7]); -41% in the series on serum lipoproteins (setting [8]).
